Test results as given in EP3900788A1, “NON-PRODUCTIVE ANGIOGENESIS INHIBITOR FOR USE IN THE TREATMENT OF ALZHEIMER'S DISEASE” (Consejo Superior de Investigaciones Científicas (CSIC), priority 2020, dated 2021).

Test system: APP751SL/+ mice
Experiment: Sorafenib treatment of AD mice: angiogenic cell density and Aβ plaques (Thio-S staining) in brain
Format: in vivo
Details: 7-month-old APP751SL/+ mice, Sorafenib treatment 1 month vs vehicle

Compound: CNC(=O)c1cc(Oc2ccc(NC(=O)Nc3ccc(Cl)c(C(F)(F)F)c3)cc2)ccn1 [Sorafenib]
- Aβ plaque load (Thio-S staining of brain): significantly reduced
- mean Aβ plaque area (Thio-S staining of brain): significantly reduced
- apparition of Iαvβ3+ cells in the brain (Iαvβ3+ cell density) (p < 0.001): strongly reduced
